Results on 23 compounds are retold here after ChEMBL document CHEMBL6153076, “Discovery of novel JQ1 derivatives as dual ferroptosis and apoptosis inducers for the treatment of triple-negative breast cancer” (Eur J Med Chem, 2025).

The target of data set [1] is T1, Phospholipid hydroperoxide glutathione peroxidase GPX4 (Homo sapiens) (UniProt P36969).
T1 sequence (whole entry): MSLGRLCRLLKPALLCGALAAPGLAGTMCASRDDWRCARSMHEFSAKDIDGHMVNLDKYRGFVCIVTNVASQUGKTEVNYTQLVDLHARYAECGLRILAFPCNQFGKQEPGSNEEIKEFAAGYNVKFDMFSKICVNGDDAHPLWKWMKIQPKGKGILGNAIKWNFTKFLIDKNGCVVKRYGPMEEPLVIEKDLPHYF
As to the kind of experiment: Inhibition of GPX4 (unknown origin) upto 3 uM incubated for 60 mins in presence of NADPH by absorbance based analysis.

Data set [2] concerns MDA-MB-231. As to the kind of experiment: Antiproliferative activity against human MDA-MB-231 cells assessed as reduction in cell proliferation incubated for 72 hrs by MTT assay. The format is functional, cell-based. (Tetrazolium assays rely on reduction of a dye to a coloured formazan, in cell work by metabolically active cells.)
Data set [3] relates to MDA-MB-231. As to the kind of experiment: cells. To be noted: Homo sapiens, MDA-MB-231, 72 h.
Description: Antiproliferative activity against human MDA-MB-231 cells assessed as inhibition of cell proliferation incubated for 72 hrs by MTT assay
In data set [4] the test system is BT-549. As to the kind of experiment: cells. To be noted: Homo sapiens, BT-549, 72 h.
Description: Antiproliferative activity against human BT-549 cells assessed as inhibition of cell proliferation incubated for 72 hrs by MTT assay
Data set [5] concerns MDA-MB-231. As to the kind of experiment: Induction of apoptosis in human MDA-MB-231 cells. Type of data set: functional, cell-based.
Data set [6] concerns MDA-MB-231. As to the kind of experiment: Induction of ferroptosis in human MDA-MB-231 cells assessed as cell death in presence of ferrostatin-1. Type of data set: functional, cell-based.
The test system of data set [7] is BT-549. As to the kind of experiment: Induction of ferroptosis in human BT-549 cells assessed as cell death in presence of ferrostatin-1. Type of data set: functional, cell-based.
Data set [8] is described as follows: Cytotoxicity against human MCF-10A cells assessed as inhibition of cell proliferation incubated for 72 hrs by MTT assay. The format is toxicity, cell-based.
Data set [9] in a line: Selectivity index, ratio of IC50 for antiproliferative activity against human MCF-10A cells assessed as inhibition of cell proliferation to IC50 for antiproliferative activity against human MDA-MB-231 cells assessed as inhibition of cell proliferation. Type of data set: toxicity, cell-based. The conditions noted are these: MCF-10A cells and MDA-MB-231 cells, read-out: Ratio IC50.

For data set [10], the system named is MDA-MB-231. As to the kind of experiment: Downregulation of NRF2 expression in human MDA-MB-231 cells at 5 uM. Type of data set: functional, cell-based.
Data set [11] has as its system MDA-MB-231. As to the kind of experiment: Downregulation of HO-1 expression in human MDA-MB-231 cells at 5 uM. The format is functional, cell-based.
In data set [12] the test system is MDA-MB-231. As to the kind of experiment: Induction of apoptosis in human MDA-MB-231 cells assessed as viable cells at 5 uM incubated for 48 hrs by Annexin V/PI staining based flow cytometry analysis (reference value: 97.85%). Type of data set: functional. The conditions noted are these: read-out: Activity. On the technique in general: Flow cytometry measures light scatter and fluorescence of single cells or particles in a stream.

Data set [13] has as its system MDA-MB-231. As to the kind of experiment: Induction of apoptosis in human MDA-MB-231 cells assessed as early apoptotic cells at 5 uM incubated for 48 hrs by Annexin V/PI staining based flow cytometry analysis (reference value: 0.80%). Type of data set: functional.
The test system of data set [14] is MDA-MB-231. As to the kind of experiment: Induction of apoptosis in human MDA-MB-231 cells assessed as late apoptotic cells at 5 uM incubated for 48 hrs by Annexin V/PI staining based flow cytometry analysis (reference value: 0.14%). The format is functional.
Data set [15] has as its system MDA-MB-231. As to the kind of experiment: Induction of apoptosis in human MDA-MB-231 cells assessed as necrotic cells at 5 uM incubated for 48 hrs by Annexin V/PI staining based flow cytometry analysis (reference value: 0.03%). The format is functional.
The subject of data set [16] is MDA-MB-231. As to the kind of experiment: Induction of cell cycle arrest in human MDA-MB-231 cells assessed as accumulation of cells at G0/G1 phase at 5 uM incubated for 48 hrs by propidium iodide staining flow cytometric analysis (reference value: 64.56 %). The format is functional.
Data set [17] concerns MDA-MB-231. As to the kind of experiment: Induction of cell cycle arrest in human MDA-MB-231 cells assessed as accumulation of cells at G2/M phase at 5 uM incubated for 48 hrs by propidium iodide staining flow cytometric analysis (reference value: 8.69%). Type of data set: functional.
Data set [18] deals with MDA-MB-231. As to the kind of experiment: Induction of cell cycle arrest in human MDA-MB-231 cells assessed as accumulation of cells at S phase at 5 uM incubated for 48 hrs by propidium iodide staining flow cytometric analysis (reference value: 26.75%). The format is functional.
The subject of data set [19] is MDA-MB-231. As to the kind of experiment: Induction of ferroptosis in human MDA-MB-231 cells assessed as cell death in presence of Z-VAD-FMK. The format is functional, cell-based.
Data set [20] has as its system BT-549. As to the kind of experiment: Induction of ferroptosis in human BT-549 cells assessed as cell death in presence of Z-VAD-FMK. The format is functional, cell-based.

Molecules are shown by their SMILES. Active and inactive are the calls of the source. No cut-off for these calls is given here. Residues, ends and D or L forms follow the SMILES beside them. *: point of attachment. Cbz = O=C(OCc1ccccc1)*; CH2F = FC*

Regarding `CC(=O)N1CCC(NC(=O)C[C@@H]2N=C(c3ccc(Cl)cc3)c3c(sc(C)c3C)-n3c(C)nnc32)CC1`, in data set [1], the inhibition entry is “inactive”. In addition, in the data set with MDA-MB-231 [2], the result was Active.

For `Cc1sc2c(c1C)C(c1ccc(Cl)cc1)=N[C@@H](CC(=O)NCCNC(=O)CCl)c1nnc(C)n1-2`, the 50% inhibitory concentration (IC50) in the data set with MDA-MB-231 [3] amounted to 3150 nM; with BT-549 [4], 2400 nM.

For `CC(C)[C@H](NC(=O)OCc1ccccc1)C(=O)N[C@@H](C)C(=O)N[C@@H](CC(=O)O)C(=O)CF` (Cbz-Val-Ala-Asp-CH2F), in the data set on MDA-MB-231 [5], the result was inactive. Besides, the result with MDA-MB-231 [6] and in the data set on BT-549 [7] was Active.

On to `Cc1sc2c(c1C)C(c1ccc(Cl)cc1)=N[C@@H](CC(=O)OC(C)(C)C)c1nnc(C)n1-2`, for which the IC50 at 72 h in data set [8] amounted to 46400 nM. In addition, the selectivity ratio in data set [9] was found to be 1.79. The result in the data set with MDA-MB-231 [10] and with MDA-MB-231 [11] was Active. In the data set with MDA-MB-231 [12], the viability at 5 µM came out at 66.4%. For the same compound, the Activity in the data set with MDA-MB-231 [13] is 16.44%; in the data set on MDA-MB-231 [14], 16.28%; with MDA-MB-231 [15], 0.66%; in the data set on MDA-MB-231 [16], 50.48%; with MDA-MB-231 [17], 18.29%; in the data set on MDA-MB-231 [18], 31.23%. Besides, the IC50 in the data set on MDA-MB-231 [3] was found to be 25900 nM; in the data set with BT-549 [4], 20100 nM.

In the case of `Cc1sc2c(c1C)C(c1ccc(Cl)cc1)=N[C@@H](CC(=O)N1CCN(C(=O)CCl)CC1)c1nnc(C)n1-2`, in data set [8], the IC50 at 72 h stood at 1150 nM. Also, in data set [9], the selectivity ratio came out at 1.55. For the same compound, the IC50 was 740 nM in the data set with MDA-MB-231 [3] and 720 nM with BT-549 [4].

Regarding `Cc1sc2c(c1C)C(c1ccc(Cl)cc1)=N[C@@H](CC(=O)NCCOCCOCCNC(=O)CCl)c1nnc(C)n1-2`, the results for the IC50 with MDA-MB-231 [3] and in the data set with BT-549 [4] were 3030 nM and 1720 nM, respectively.

As for `Cc1sc2c(c1C)C(c1ccc(Cl)cc1)=N[C@@H](CC(=O)NCC1CCN(C(=O)CCl)CC1)c1nnc(C)n1-2`, in data set [8], the IC50 at 72 h amounted to 1470 nM. Further, in data set [9], the selectivity ratio came out at 1.47. The IC50 with MDA-MB-231 [3] was determined as 1000 nM; in the data set on BT-549 [4], 720 nM.

On to `Cc1sc2c(c1C)C(c1ccc(Cl)cc1)=N[C@@H](CC(=O)Nc1ccc(CNC(=O)CCl)cc1)c1nnc(C)n1-2`, for which the IC50 came out at 1460 nM with MDA-MB-231 [3] and 1070 nM in the data set on BT-549 [4].

Consider `Cc1sc2c(c1C)C(c1ccc(Cl)cc1)=N[C@@H](CC(=O)NCCCN1CCN(C(=O)CCl)CC1)c1nnc(C)n1-2`, for which the IC50 in the data set with MDA-MB-231 [3] stood at 2260 nM; in the data set on BT-549 [4], 2460 nM.

For `Cc1sc2c(c1C)C(c1ccc(Cl)cc1)=N[C@@H](CC(=O)NCCCCCCNC(=O)CCl)c1nnc(C)n1-2`, the IC50 in the data set on MDA-MB-231 [3] was 5250 nM; in the data set with BT-549 [4] it was 5390 nM.

Take `Cc1sc2c(c1C)C(c1ccc(Cl)cc1)=N[C@@H](CC(=O)NCCCNC(=O)CCl)c1nnc(C)n1-2`: the IC50 in the data set on MDA-MB-231 [3] was 4570 nM; in the data set with BT-549 [4], 2270 nM.

`Cc1sc2c(c1C)C(c1ccc(Cl)cc1)=N[C@@H](CC(=O)NCCN1CCN(C(=O)CCl)CC1)c1nnc(C)n1-2`: the IC50 in the data set with MDA-MB-231 [3] came out at 5940 nM; with BT-549 [4] it was 6990 nM.

As to `Cc1sc2c(c1C)C(c1ccc(Cl)cc1)=N[C@@H](CC(=O)Nc1ccc(CCNC(=O)CCl)cc1)c1nnc(C)n1-2`, the IC50 in the data set with MDA-MB-231 [3] was 13700 nM; in the data set with BT-549 [4] it was 17100 nM.

As to `Cc1sc2c(c1C)C(c1ccc(Cl)cc1)=N[C@@H](CC(=O)NCCc1ccc(NC(=O)CCl)cc1)c1nnc(C)n1-2`, the IC50 at 72 h in [8] is 1540 nM. In [9], the selectivity ratio amounted to 2.26. Besides, the IC50 with MDA-MB-231 [3] came to 690 nM; in the data set with BT-549 [4], 850 nM.

On to `CCOC(=O)c1ccc(NC2CCCCC2)c(N)c1`, for which the result in the data set on MDA-MB-231 [19] and with BT-549 [20] was Active.

For the compound `Cc1sc2c(c1C)C(c1ccc(Cl)cc1)=N[C@@H](CC(=O)NCCCCCNC(=O)CCl)c1nnc(C)n1-2`, the values for the IC50 in the data set on MDA-MB-231 [3] and in the data set on BT-549 [4] were 5570 nM and 2620 nM, respectively.

In the case of `Cc1sc2c(c1C)C(c1ccc(Cl)cc1)=N[C@@H](CC(=O)Nc1ccc(N3CCN(C(=O)CCl)CC3)cc1)c1nnc(C)n1-2`, the IC50 with MDA-MB-231 [3] is 5310 nM; in the data set on BT-549 [4], 7530 nM.

On to `Cc1sc2c(c1C)C(c1ccc(Cl)cc1)=N[C@@H](CC(=O)NCCC1CCN(C(=O)CCl)CC1)c1nnc(C)n1-2`, for which the results for the IC50 in the data set with MDA-MB-231 [3] and in the data set on BT-549 [4] were 3490 nM and 3190 nM, respectively.

With `Cc1sc2c(c1C)C(c1ccc(Cl)cc1)=N[C@@H](CC(=O)NCCOCCNC(=O)CCl)c1nnc(C)n1-2`, the IC50 turned out to be 3880 nM in the data set on MDA-MB-231 [3] and 3400 nM in the data set on BT-549 [4].

Take `Cc1sc2c(c1C)C(c1ccc(Cl)cc1)=N[C@@H](CC(=O)NCCCCNC(=O)CCl)c1nnc(C)n1-2`: the IC50 in the data set on MDA-MB-231 [3] stood at 4640 nM; in the data set on BT-549 [4], 5280 nM.

On to `Cc1sc2c(c1C)C(c1ccc(Cl)cc1)=N[C@@H](CC(=O)NCc1ccc(NC(=O)CCl)cc1)c1nnc(C)n1-2`, for which the figures for the IC50 in the data set with MDA-MB-231 [3] and in the data set on BT-549 [4] were 1500 nM and 1000 nM, respectively.

Turning to `Cc1sc2c(c1C)C(c1ccc(Cl)cc1)=N[C@@H](CC(=O)Nc1ccc(NC(=O)CCl)cc1)c1nnc(C)n1-2`, the IC50 in the data set with MDA-MB-231 [3] worked out at 1400 nM; in the data set on BT-549 [4], 970 nM.

In the case of `Cc1sc2c(c1C)C(c1ccc(Cl)cc1)=N[C@@H](CC(=O)NCc1ccc(CNC(=O)CCl)cc1)c1nnc(C)n1-2`, the IC50 in the data set on MDA-MB-231 [3] came to 1370 nM; in the data set with BT-549 [4] it was 950 nM.

A word on the IC50: it is the concentration at which inhibition is half-maximal.
